Assay results as given in ChEMBL document CHEMBL4308901, “Synthesis and biological evaluation of BMS-986120 and its deuterated derivatives as PAR4 antagonists” (Bioorg Med Chem, 2019).
pIC50: −log10 of the molar value.

Species on record: Mus musculus
Assay: Antiplatelet activity in ICR mouse platelet rich plasma assessed as inhibition of PAR4-AP-induced platelet aggregation pretreated for 5 mins followed by PAR4-AP addition by aggregometric analysis
Type: functional

Row | pIC50 | Structure (SMILES)
1 | 8.11 | COc1cc(OCc2nc(N3CCOCC3)sc2C)c2cc(-c3cn4nc(OC)sc4n3)oc2c1
2 | 7.84 | [2H]C(Oc1cc(OC)cc2oc(-c3cn4nc(OC)sc4n3)cc12)c1nc(N2CCOCC2)sc1C (stereo not drawn)
3 | 8.16 | [2H]C([2H])([2H])Oc1cc(OCc2nc(N3CCOCC3)sc2C)c2cc(-c3cn4nc(OC([2H])([2H])[2H])sc4n3)oc2c1
4 | 8.06 | [2H]C([2H])([2H])Oc1nn2cc(-c3cc4c(OCc5nc(N6CCOCC6)sc5C)cc(OC)cc4o3)nc2s1
5 | 8.20 | [2H]C([2H])([2H])Oc1cc(OCc2nc(N3CCOCC3)sc2C)c2cc(-c3cn4nc(OC)sc4n3)oc2c1
6 | 8.09 | [2H]C(Oc1cc(OC([2H])([2H])[2H])cc2oc(-c3cn4nc(OC)sc4n3)cc12)c1nc(N2CCOCC2)sc1C (stereo not drawn)
7 | 8.02 | [2H]C(Oc1cc(OC([2H])([2H])[2H])cc2oc(-c3cn4nc(OC([2H])([2H])[2H])sc4n3)cc12)c1nc(N2CCOCC2)sc1C (stereo not drawn)
8 | 8.11 | [2H]C(Oc1cc(OC)cc2oc(-c3cn4nc(OC([2H])([2H])[2H])sc4n3)cc12)c1nc(N2CCOCC2)sc1C (stereo not drawn)
